Patent US11072634B2, “Inhibitors of transglutaminases” (Zedira GmbH, priority 2016, dated 2021)
pIC50: −log10 of the molar value.

Each molecule was assayed against T1, recombinant human tissue transglutaminase (rhTG2) (Homo sapiens, UniProt P21980) (assay: Inhibition of rec. human tissue transglutaminase (fluorescence, Abz-APE(CAD-DNP)QEA-OH)). Settings: Table 2, TG2 inhibitors.
T1 construct: purchased Zedira 1022 (so in the source); T022)
T1 sequence (P21980 1-687): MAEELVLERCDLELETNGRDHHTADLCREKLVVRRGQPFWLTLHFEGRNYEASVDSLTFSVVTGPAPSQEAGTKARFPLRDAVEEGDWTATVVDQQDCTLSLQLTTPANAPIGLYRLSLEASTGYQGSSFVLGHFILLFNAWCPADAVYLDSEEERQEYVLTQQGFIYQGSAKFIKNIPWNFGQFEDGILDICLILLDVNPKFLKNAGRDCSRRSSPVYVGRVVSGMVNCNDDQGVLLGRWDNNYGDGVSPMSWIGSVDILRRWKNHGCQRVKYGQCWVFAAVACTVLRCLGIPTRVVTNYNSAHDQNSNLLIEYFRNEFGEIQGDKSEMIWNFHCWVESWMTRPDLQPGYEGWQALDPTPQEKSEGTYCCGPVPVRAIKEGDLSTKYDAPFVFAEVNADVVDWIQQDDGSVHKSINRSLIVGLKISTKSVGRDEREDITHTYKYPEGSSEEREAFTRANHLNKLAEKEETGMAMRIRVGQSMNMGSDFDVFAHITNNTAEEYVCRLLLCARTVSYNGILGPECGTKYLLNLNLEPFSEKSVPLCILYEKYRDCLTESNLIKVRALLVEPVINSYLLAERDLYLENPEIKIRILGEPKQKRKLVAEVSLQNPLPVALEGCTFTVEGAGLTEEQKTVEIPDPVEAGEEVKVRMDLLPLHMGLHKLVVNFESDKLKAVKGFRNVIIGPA
Assay type: biochemical
Protocol: Method for Inhibition Studies of Rec. Human Tissue Transglutaminase (rhTG2)
250 μg lyophilized His-tagged recombinant human tissue transglutaminase (His6-rhTG2, Zedira product 1022) is reconstituted in H2O (volume depends on original volume before lyophilization) resulting in a buffer containing 10 mM Tris-HCl, 150 mM NaCl, 1 mM EDTA, 5 mM DTT, 189 mg/ml maltodextrin, pH=8.1. The rhTG2 stock solution is diluted in buffer (50 mM Tris-HCl, 7.5 mM CaCl2, 150 mM NaCl, pH=7.4) to give a working solution of 100 U/ml (based on the amine-incorporation activity measured using T036, described below).
A 10 mM inhibitor stock solution is prepared in DMSO, and from this stock solution a serial 1:2-fold dilution series is prepared, also in DMSO. Each of these initial dilutions is subsequently diluted 1:50-fold with buffer (50 mM Tris-HCl, 7.5 mM CaCl2, 150 mM NaCl, pH=7.4) to yield the final working dilutions containing 2% (v/v) DMSO. 15 μl of inhibitor working dilution are added per well of a 96 well microtiter plate. As control, 15 μl of a 2% (v/v) DMSO solution prepared using the buffer mentioned above are added per well.
600 μl of His6-rhTG2 working solution are added to 11.4 ml assay buffer (50 mM Iris-HCl, 7.5 mM CaCl2, 150 mM NaCl, 5 mM DTI, 13.4 mM glycine methylester, 50 μM Abz-APE(CAD-DNP)QEA-OH, (Zedira product A102; patent No.: EP 1781807B1), pH=7.4). From this master-mix solution, 285 μl are added per well containing the inhibitor. Increase in fluorescence is measured using λex=313 nm and λem=418 nm at 37° C. for 20 min. A slope of the increase in fluorescence between 10 and 20 min is calculated for determination of the IC50 value (inhibitor concentration at which 50% of the initial TG2 activity is blocked).
Analysis of enzymatic activity is performed by calculation of the slope of an increase in fluorescence intensity. IC50 values are calculated by plotting the enzymatic activity (as percentage from control containing 2% DMSO instead of inhibitor) against the inhibitor concentration. IC50 is defined as the inhibitor concentration blocking 50%) of initial enzyme activity.

Row | pIC50 | SMILES
1 | 7.22 | CCC(CC)CNC(=O)Cn1cc(C)cc(NC(=O)[C@H](CCC(=O)C(=O)NC)NC(=O)c2cncn2C)c1=O [Compound E43, (S)—N1-(1-(2-(2-ethylbutylamino)-2-oxoethyl)-5-methyl-2-oxo-1,2-dihydropyridin-yl)-N6-methyl-2-(1-methyl-1H-imidazole-5-carboxamido)-5-oxohexanediamide]
2 | 6.87 | CCC(CC)CNC(=O)Cn1cccc(NC(=O)[C@H](CCC(=O)C(=O)CC(C)C)NC(=O)c2cncn2C)c1=O [Compound E80, (S)—N-(1-(1-(2-(2-ethylbutylamino)-2-oxoethyl)-2-oxo-1,2-dihydropyridin-3-ylamino)-8-methyl-1,5,6-trioxononan-2-yl)-1-methyl-1H-imidazole-5-carboxamide]
3 | 7.22 | CCC(CC)CNC(=O)Cn1cccc(NC(=O)[C@H](CCC(=O)C(=O)NC)NC(=O)[C@@H]2CC(=O)CN2)c1=O [Compound E60, (S)—N1-(1-(2-(2-ethylbutylamino)-2-oxoethyl)-2-oxo-1,2-dihydropyridin-3-yl)-N6-methyl-5-oxo-2-((S)-4-oxopyrrolidine-2-carboxamido)hexanediamide]
4 | 7.19 | CCC(CC)CNC(=O)Cn1cccc(NC(=O)[C@H](CCC(=O)C(=O)NC)NC(=O)c2cnc3ccccc3n2)c1=O [Compound E65, (S)—N1-(1-(2-(2-ethylbutylamino)-2-oxoethyl)-2-oxo-1,2-dihydropyridin-3-yl)-N6-methyl-5-oxo-2-(quinoxaline-2-carboxamido)hexanediamide]
5 | 5.80 | CCC(CC)CNC(=O)Cn1ccc(C)c(NC(=O)[C@H](CCC(=O)C(=O)NC)NC(=O)c2cncn2C)c1=O [Compound E42, (S)—N1-(1-(2-(2-ethylbutylamino)-2-oxoethyl)-4-methyl-2-oxo-1,2-dihydropyridin-3-yl)-N6-methyl-2-(1-methyl-1H-imidazole-5-carboxamido)-5-oxohexanediamide]
6 | 6.07 | CCS(=O)(=O)NC(=O)Cn1cccc(NC(=O)[C@H](CCC(=O)C(=O)NC)NC(=O)c2cncn2C)c1=O [Compound E56, (S)—N1-(1-(2-(ethylsulfonamido)-2-oxoethyl)-2-oxo-1,2-dihydropyridin-3-yl)-N6-methyl-2-(1-methyl-1H-imidazole-5-carboxamido)-5-oxohexanediamide]
7 | 6.15 | CCC(CC)CNC(=O)Cn1cccc(NC(=O)[C@H](CCC(=O)C(N)=O)NC(=O)c2cc([N+](=O)[O-])ccc2C)c1=O [Compound E13]
8 | 6.55 | CCC(CC)CNC(=O)Cn1cccc(NC(=O)[C@H](CCC(=O)C(=O)NC)NC(=O)OC(C)(C)C)c1=O [Compound E58, (S)-tert-butyl 1-(1-(2-(2-ethylbutylamino)-2-oxoethyl)-2-oxo-1,2-dihydropyridin-3-ylamino)-6-(methylamino)-1,5,6-trioxohexan-2-ylcarbamate]
9 | 7.10 | CCC(CC)CNC(=O)Cn1c(C)ccc(NC(=O)[C@H](CCC(=O)C(=O)NC)NC(=O)c2cncn2C)c1=O [Compound E44, (S)—N1-(1-(2-(2-ethylbutylamino)-2-oxoethyl)-6-methyl-2-oxo-1,2-dihydropyridin-3-yl)-N6-methyl-2-(1-methyl-1H-imidazole-5-carboxamido)-5-oxohexanediamide]
10 | 7.10 | CCC(CC)CNC(=O)Cn1cc(C(F)(F)F)cc(NC(=O)[C@H](CCC(=O)C(=O)NC)NC(=O)c2cncn2C)c1=O [Compound E47, (S)—N1-(1-(2-(2-ethylbutylamino)-2-oxoethyl)-2-oxo-5-(trifluoromethyl)-1,2-dihydropyridin-3-yl)-N6-methyl-2-(1-methyl-1H-imidazole-5-carboxamido)-5-oxohexanediamide]
11 | 6.12 | CNC(=O)C(=O)CC[C@H](NC(=O)c1cncn1C)C(=O)Nc1cccn(CC(=O)NS(C)(=O)=O)c1=O [Compound E51, (S)—N1-methyl-5-(1-methyl-1H-imidazole-5-carboxamido)-N6-(1-(2-(methylsulfonamido)-2-oxoethyl)-2-oxo-1,2-dihydropyridin-3-yl)-2-oxohexanediamide]
12 | 6.35 | CCC(CC)CNC(=O)Cn1cccc(NC(=O)[C@H](CCC(=O)C(N)=O)NC(=O)c2cnccn2)c1=O [Compound E11, (S)—N1-(1-(2-(2-ethylbutylamino)-2-oxoethyl)-2-oxo-1,2-dihydropyridin-3-yl)-5-oxo-2-(pyrazine-2-carboxamido)hexanediamide]
13 | 6.70 | CNC(=O)C(=O)CC[C@H](NC(=O)c1cncn1C)C(=O)Nc1cccn(CC(=O)NCN(C)C)c1=O [Compound E55, (S)-N1-(1-(2-((dimethylamino)methylamino)-2-oxoethyl)-2-oxo-1,2-dihydropyridin-3-yl)-N6-methyl-2-(1-methyl-1H-imidazole-5-carboxamido)-5-oxohexanediamide]
14 | 6.12 | CNC(=O)C(=O)CC[C@H](NC(=O)c1cncn1C)C(=O)Nc1cccn(CC(=O)OCCOC)c1=O [Compound E53, (S)-2-methoxyethyl 2-(3-(2-(1-methyl-1H-imidazole-5-carboxamido)-6-(methylamino)-5,6-dioxohexanamido)-2-oxopyridin-1(2H)-yl)acetate]
15 | 6.87 | CCC(CC)CNC(=O)Cn1cccc(NC(=O)[C@H](CCC(=O)C(=O)C2CC2)NC(=O)c2cncn2C)c1=O [Compound E75, (S)—N-(6-cyclopropyl-1-(1-(2-(2-ethylbutylamino)-2-oxoethyl)-2-oxo-1,2-dihydropyridin-3-ylamino)-1,5,6-trioxohexan-2-yl)-1-methyl-1H-imidazole-5-carboxamide]
16 | 6.28 | CCC(CC)CNC(=O)Cn1cccc(NC(=O)[C@H](CCC(=O)C(=O)NOCC2CCCC2)NC(=O)c2cncn2C)c1=O [Compound E79, (S)—N1-(cyclopentylmethoxy)-N6-(1-(2-(2-ethylbutylamino)-2-oxoethyl)-2-oxo-1,2-di-hydropyridin-3-yl)-5-(1-methyl-1H-imidazole-5-carboxamido)-2-oxohexanediamide]
17 | 6.60 | CCC(CC)CNC(=O)Cn1cccc(NC(=O)[C@H](CCC(=O)C(N)=O)NC(=O)c2scnc2C)c1=O [Compound E14, (S)—N1-(1-(2-(2-ethylbutylamino)-2-oxoethyl)-2-oxo-1,2-dihydropyridin-3-yl)-2-(4-methylthiazole-5-carboxamido)-5-oxohexanediamide]
18 | 6.56 | CCC(CC)CNC(=O)Cn1cccc(NC(=O)[C@H](CCC(=O)C(=O)NC)NC(=O)Nc2ccccc2)c1=O [Compound E69, (S)—N1-(1-(2-(2-ethylbutylamino)-2-oxoethyl)-2-oxo-1,2-dihydropyridin-3-yl)-N6-methyl-5-oxo-2-(3-phenylureido)hexanediamide]
